Residue numbers refer to the chain shown, from its start.
Experiments:
[1] = target: T1, rice AGPase L2/S2b (wild type; parent of L2/S2b^QTC and PQ6) (Oryza sativa, UniProt B7EVB8+Q7G065, B7EVB8:N38Q/B7EVB8:K39T/B7EVB8:N40C/B7EVB8:L379F); settings: read-out: A0.5; allosteric activator; ATP and Glc1P, 10 mM MgCl2, pH 8.0, room temperature; enzyme reduced with 10 mM DTT
T1 construct: gene AGPL2
T1 sequence (Q7G065 1-518): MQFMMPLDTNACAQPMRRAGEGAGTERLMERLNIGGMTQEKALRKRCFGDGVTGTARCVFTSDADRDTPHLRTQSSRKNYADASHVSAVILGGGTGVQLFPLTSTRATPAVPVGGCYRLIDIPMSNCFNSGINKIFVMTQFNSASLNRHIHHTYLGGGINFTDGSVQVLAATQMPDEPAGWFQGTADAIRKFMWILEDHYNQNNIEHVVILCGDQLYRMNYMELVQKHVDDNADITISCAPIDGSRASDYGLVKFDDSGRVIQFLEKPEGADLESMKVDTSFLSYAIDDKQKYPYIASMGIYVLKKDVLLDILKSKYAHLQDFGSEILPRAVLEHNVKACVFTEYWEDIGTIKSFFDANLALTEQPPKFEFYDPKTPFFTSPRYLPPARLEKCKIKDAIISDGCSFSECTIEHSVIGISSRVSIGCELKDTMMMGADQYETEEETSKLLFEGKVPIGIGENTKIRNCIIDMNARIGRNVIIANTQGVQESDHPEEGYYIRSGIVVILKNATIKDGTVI
T1 sequence (B7EVB8 1-479 N38Q/K39T/N40C/L379F): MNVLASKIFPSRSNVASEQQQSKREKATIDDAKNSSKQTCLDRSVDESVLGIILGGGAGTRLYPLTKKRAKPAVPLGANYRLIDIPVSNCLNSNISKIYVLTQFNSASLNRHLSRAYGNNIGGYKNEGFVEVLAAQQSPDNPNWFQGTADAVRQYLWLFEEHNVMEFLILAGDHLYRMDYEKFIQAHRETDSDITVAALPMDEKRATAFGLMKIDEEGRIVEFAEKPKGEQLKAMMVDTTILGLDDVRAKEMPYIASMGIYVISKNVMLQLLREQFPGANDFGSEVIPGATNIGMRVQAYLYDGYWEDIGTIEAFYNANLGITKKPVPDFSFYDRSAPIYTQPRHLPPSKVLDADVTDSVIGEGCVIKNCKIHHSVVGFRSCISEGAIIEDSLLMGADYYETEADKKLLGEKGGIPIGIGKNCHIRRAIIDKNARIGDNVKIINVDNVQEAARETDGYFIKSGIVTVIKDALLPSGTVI
Excerpt: (§1) AGPase activity, phosphate release (PAMb colorimetric), Hill fit on rice AGPase L2/S2b (wild type; parent of L2/S2b^QTC and PQ6)

[2] = target: T2, rice AGPase L2/S2b (wild type; parent of L2/S2b^QTC and PQ6) (Oryza sativa, UniProt B7EVB8+Q7G065, B7EVB8:N38Q/B7EVB8:K39T/B7EVB8:N40C); settings: read-out: A0.5; allosteric activator; ATP and Glc1P, 10 mM MgCl2, pH 8.0, room temperature; enzyme reduced with 10 mM DTT
T2 construct: gene AGPL2
T2 sequence (Q7G065 1-518): T1 sequence (Q7G065 1-518)
T2 sequence (B7EVB8 1-479 N38Q/K39T/N40C): T1 sequence (B7EVB8 1-479 N38Q/K39T/N40C/L379F) with F379L
Excerpt: as §1

[3] = target: T3, rice AGPase L2/S2b (wild type; parent of L2/S2b^QTC and PQ6) (Oryza sativa, UniProt B7EVB8+Q7G065); settings: read-out: A0.5; allosteric activator; ADP-glucose synthesis with ATP and Glc1P, 10 mM MgCl2, pH 8.0, room temperature; enzyme reduced with 10 mM DTT
T3 construct: gene AGPL2
T3 sequence (Q7G065 1-518): T1 sequence (Q7G065 1-518)
T3 sequence (B7EVB8 1-479): T1 sequence (B7EVB8 1-479 N38Q/K39T/N40C/L379F) with Q38N, T39K, C40N, F379L
Excerpt: as §1

hybrid L2/pSS = target: T4, hybrid L2/pSS (Oryza sativa; Solanum tuberosum, UniProt P23509+Q7G065); assay: AGPase activity, phosphate release (PAMb colorimetric), Hill fit; type: biochemical; settings: allosteric activator; ATP and Glc1P, 10 mM MgCl2, pH 8.0, room temperature; enzyme reduced with 10 mM DTT; read-out: A0.5
T4 construct: hybrid heterotetramer of whole rice L2 and whole potato SS, E. coli EA345, purified
T4 sequence (P23509 73-521): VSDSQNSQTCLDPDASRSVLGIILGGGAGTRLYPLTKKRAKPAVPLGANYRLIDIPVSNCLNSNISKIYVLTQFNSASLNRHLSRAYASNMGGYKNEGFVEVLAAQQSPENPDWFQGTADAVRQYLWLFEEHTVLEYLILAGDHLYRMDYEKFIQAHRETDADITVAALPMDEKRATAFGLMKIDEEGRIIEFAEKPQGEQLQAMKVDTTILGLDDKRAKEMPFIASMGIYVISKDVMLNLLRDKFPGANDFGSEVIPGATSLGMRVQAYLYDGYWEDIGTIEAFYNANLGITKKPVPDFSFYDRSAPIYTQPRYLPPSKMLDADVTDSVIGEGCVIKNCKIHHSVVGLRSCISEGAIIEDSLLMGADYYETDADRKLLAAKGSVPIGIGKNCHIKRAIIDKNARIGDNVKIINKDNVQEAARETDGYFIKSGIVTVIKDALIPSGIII
T4 sequence (Q7G065 1-518): T1 sequence (Q7G065 1-518)
Excerpt: AGPase activity, phosphate release (PAMb colorimetric), Hill fit on hybrid L2/pSS

O=C(O)[C@H](O)COP(=O)(O)O [3-PGA]
EC50 [1]: 106 µM
EC50 [2]: 95 ± 2 µM
EC50 [3]: 342 ± 30 µM
EC50 (hybrid L2/pSS): 147 ± 3 µM

Reference: publication PMC6378277, “Mechanism Underlying Heat Stability of the Rice Endosperm Cytosolic ADP-Glucose Pyrophosphorylase” (Frontiers in Plant Science, 2019)
